Assay [1] addresses T1, xanthine oxidase (XO; from buttermilk) (Bos taurus, UniProt P80457).
T1 construct: purchased Sigma-Aldrich; host or cells: buttermilk (natural source)
In words: biochemical. The following applies: 30 min, 37 °C; read-out: XO Inhibition IC50 (converted). Here is the method: All reactants were dissolved in PBS (0.2 M, pH 7.5). The experiments were performed at 37 °C in 96-wells microplates with a final volume of 250 µL/well [30]. […] To all wells, 25 µL of EDTA (0.1 mM in PBS) and 25 µL of xanthine solution (500 µM) were then added, and the reaction was started by adding 50 µL of XO suspension (23.32 mU/mL), while PBS (50 µL) was added in blank samples. The final concentrations were: xanthine, 50 µM; EDTA, 10 µM and XO, 4.7 mU/mL. The wells were incubated for 30 min at 37 °C, and uric acid production was determined by subtracting the absorbance at 290–295 nm of the sample against that of the blank. Each measurement was performed in triplicate.

Assay [2] in a line: Superoxide radical quenching (allopurinol-XO generator, lucigenin luminescence). To be noted: glycine buffer/acetone. Here is the method:
All reactants were dissolved in glycine buffer, and the reaction was carried out at 25 °C [30]. […] The test tube was inserted in the luminometer, and reaction was initiated by adding a XO suspension (2 µL, 11 mU/mL). Luminescence was monitored for a total period of 7 min and O2^•− quenching was calculated by subtracting areas under the curve against blank. Each measurement was performed in triplicate.

Assay [3] is described as follows: Metal chelating capacity (ferrozine). The following applies: EDTA equivalents per gram of extract.
Assay [4] deals with T2, Lipoxygenase (15-LOX, soybean) (Glycine max, UniProt P08170).
T2 sequence (P08170 1-839): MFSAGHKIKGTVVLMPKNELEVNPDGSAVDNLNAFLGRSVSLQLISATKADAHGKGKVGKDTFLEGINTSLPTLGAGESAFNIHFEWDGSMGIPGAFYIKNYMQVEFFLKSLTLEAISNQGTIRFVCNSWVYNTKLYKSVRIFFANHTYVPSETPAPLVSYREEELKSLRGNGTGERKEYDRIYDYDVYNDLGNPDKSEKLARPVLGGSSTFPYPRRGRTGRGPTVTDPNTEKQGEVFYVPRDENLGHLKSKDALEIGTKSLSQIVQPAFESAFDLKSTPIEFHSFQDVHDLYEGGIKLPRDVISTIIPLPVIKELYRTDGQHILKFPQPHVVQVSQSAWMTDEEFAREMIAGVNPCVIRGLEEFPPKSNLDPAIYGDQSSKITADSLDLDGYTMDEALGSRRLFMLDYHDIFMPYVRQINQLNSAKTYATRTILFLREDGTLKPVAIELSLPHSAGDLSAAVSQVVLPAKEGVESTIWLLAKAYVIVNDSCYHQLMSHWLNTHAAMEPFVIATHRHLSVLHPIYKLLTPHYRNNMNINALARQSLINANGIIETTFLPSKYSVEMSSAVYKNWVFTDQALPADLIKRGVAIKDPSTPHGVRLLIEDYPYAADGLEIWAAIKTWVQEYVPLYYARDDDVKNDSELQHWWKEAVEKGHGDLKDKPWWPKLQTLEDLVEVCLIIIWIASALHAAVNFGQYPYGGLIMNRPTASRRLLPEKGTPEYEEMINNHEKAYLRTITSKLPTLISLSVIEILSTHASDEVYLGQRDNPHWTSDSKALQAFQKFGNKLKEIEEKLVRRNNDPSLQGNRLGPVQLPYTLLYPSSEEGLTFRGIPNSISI
In words: Lipoxygenase inhibitory activity (Cayman kit). To be noted: compounds at 100 µg/mL. Type of assay: biochemical. Here is the method: Lipoxygenase (15-LOX, soybean) inhibitory activity was evaluated using a commercial assay kit (Cayman Chemicals Co; Item No. 760700) according to the manufacturer’s instructions. Solutions of test samples (10 μL) in methanol were added into 96-wells plates together with assay buffer, and the enzyme was added. The reaction was initiated by adding 10 μL of arachidonic acid to the wells and the plate was placed on a shaker for 15 min. Chromogen solution (100 μL) was added to the wells, the plate was then placed on a shaker for 10 min and absorbance was read at 495–500 nm. […] Results are expressed as a percentage relative to the activity without the test compound.

A short description of assay [5]: DPPH assay. To be noted: metabolites and standards, in dichloromethane. Here is the method:
Experiments were performed according to previous procedures. Aliquots of dichloromethane solutions of oil or fractions (50–500 mg/mL) or test compounds (final concentration 0.01–2 mM) were added to 200 µL of a freshly prepared DPPH solution (75 mg/L), and the final volume was adjusted to 300 µL with dichloromethane to obtain a final DPPH concentration of 0.13 mM. The absorbance was read at 517 nm on a microplate reader 3 min after sample addition. Experiments were performed in triplicate and averaged. The DPPH inhibition was calculated as follows:Inhibition (%) = [100 × (A0 − A)/A0](1)

A short description of assay [6]: Total peroxyl radical-trapping potential (TRAP) assay. To be noted: metabolites and standards: activity of a 1 µM-solution relative to 1 µM Trolox. Here is the method:
The experimental protocol of the TRAP assay was previously reported. Briefly, AAPH (150 mM) was dissolved in 10 mL of Tris HCl buffer solution (100 mM, pH 7.4), and the solution was kept at 37 °C for 30 min to initiate thermal radical formation. A luminol stock solution (1 mM) was prepared in 50 mL Tris HCl buffer and kept in darkness at 4 °C. A 78 µM, working luminol solution was prepared before each assay by dilution in Tris HCl buffer. Samples for assays were prepared as follows: 2 mL of AAPH (final concentration, 100 mM) and 500 μL of luminol solution (final concentration, 13 µM) were introduced in a 3 mL tube; then, 500 μL of pure acetone (blank) or solution of the tested oil or extract in acetone (0.005–0.2 mg/mL) or DMSO (test compounds: 5–300 µM) were added and the mixture vortexed for 5 s before luminescence analysis. A calibration curve was obtained in the same conditions using the antioxidant Trolox (1–40 μM) as a standard.
Quantification of radical scavenging capacity was performed by integrating the area under the curve (AUC) for the sample and blank solutions, and the results are expressed as Trolox Equivalents (TE) using Equation (2):TE = ([Trolox] × ΔAUC Sample)/([Sample] × ΔAUC Trolox)(2) where ΔAUC Sample (Trolox) = AUC Blank − AUC Sample (Trolox).

Assay [7] has as its target T3, proteinase K (PTA) (Parengyodontium album, UniProt P06873).
T3 construct: purchased Sigma-Aldrich
In words: Proteinase inhibitory activity. It is filed as biochemical. The following applies: compounds at 150 µg/mL. Here is the method: Anti-inflammatory properties of the extracts were evaluated by their proteinase and lipoxygenase inhibitory activities as described. Briefly, PTA (0.06 mg) was dissolved in 2 mL of Tris HCl buffer (20 mM, pH 7.4) containing a suspension of each extract (100–600 µg/mL). The mixture was incubated at 37 °C for 5 min, and 1 mL of 4% BSA was added. Incubation was prolonged for 20 min, and afterwards 2 mL of 5% trichloroacetic acid was added to the mixture. After centrifugation (3000 rpm, 10 min, 4 °C) the absorbance was read at 210 nm against buffer as blank, and the percentage of proteinase inhibition activity was calculated. Experiments were performed in triplicate and averaged. The anti-inflammatory drug diclofenac (100–300 µg/mL) was used as a standard for comparison.

T1 sequence (P80457 whole entry): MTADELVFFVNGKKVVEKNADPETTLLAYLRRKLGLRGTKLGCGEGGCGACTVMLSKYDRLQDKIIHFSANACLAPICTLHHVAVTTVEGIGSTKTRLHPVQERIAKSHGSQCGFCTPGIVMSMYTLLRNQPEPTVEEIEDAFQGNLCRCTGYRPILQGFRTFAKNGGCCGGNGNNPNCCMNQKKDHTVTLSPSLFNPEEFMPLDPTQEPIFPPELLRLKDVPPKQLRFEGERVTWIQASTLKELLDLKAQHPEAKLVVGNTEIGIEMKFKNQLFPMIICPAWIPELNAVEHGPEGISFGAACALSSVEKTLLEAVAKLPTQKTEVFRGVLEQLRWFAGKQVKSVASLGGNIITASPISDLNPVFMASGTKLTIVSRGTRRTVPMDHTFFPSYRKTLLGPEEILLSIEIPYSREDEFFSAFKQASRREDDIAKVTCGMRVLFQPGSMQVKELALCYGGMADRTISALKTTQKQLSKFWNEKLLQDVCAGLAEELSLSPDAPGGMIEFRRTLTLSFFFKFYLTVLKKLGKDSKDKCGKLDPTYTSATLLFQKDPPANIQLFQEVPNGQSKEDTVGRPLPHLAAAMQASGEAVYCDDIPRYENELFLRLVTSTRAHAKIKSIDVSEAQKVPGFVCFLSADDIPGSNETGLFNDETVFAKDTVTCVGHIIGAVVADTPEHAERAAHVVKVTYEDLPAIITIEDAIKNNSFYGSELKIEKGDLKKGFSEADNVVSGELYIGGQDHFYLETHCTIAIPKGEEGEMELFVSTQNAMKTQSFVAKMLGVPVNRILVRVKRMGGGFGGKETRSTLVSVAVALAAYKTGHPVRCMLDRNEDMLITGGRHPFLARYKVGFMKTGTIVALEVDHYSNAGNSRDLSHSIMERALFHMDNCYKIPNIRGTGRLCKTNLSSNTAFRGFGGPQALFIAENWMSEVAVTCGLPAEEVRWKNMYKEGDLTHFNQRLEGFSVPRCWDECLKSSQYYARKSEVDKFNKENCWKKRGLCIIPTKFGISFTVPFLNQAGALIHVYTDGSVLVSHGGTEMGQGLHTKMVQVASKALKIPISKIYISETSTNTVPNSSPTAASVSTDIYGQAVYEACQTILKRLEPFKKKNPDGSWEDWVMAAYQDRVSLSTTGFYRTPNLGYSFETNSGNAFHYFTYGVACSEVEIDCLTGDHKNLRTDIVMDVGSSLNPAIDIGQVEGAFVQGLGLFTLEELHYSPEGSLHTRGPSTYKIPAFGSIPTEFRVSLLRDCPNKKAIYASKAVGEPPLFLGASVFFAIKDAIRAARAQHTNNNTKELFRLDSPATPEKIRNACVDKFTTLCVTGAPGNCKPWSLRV
T3 sequence (P06873 106-384): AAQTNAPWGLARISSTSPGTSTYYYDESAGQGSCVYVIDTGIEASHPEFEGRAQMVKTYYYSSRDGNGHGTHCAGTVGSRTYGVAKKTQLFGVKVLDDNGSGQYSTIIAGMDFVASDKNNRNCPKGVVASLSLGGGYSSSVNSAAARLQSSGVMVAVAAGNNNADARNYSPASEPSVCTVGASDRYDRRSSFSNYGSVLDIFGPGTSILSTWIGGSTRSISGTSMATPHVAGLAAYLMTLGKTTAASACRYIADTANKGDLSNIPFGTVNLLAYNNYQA

Turning to `O=C(O)/C=C/c1ccc(O)c(O)c1` [Caffeic acid], the 50% inhibitory concentration (IC50) in assay [1] is 219 µM; in assay [5], 18.1 ± 0.21 µM. For the same compound, in assay [2], the “O2•− Quenching IC50” value was determined as 0.013 ± 0.06 µg/mL. For the same compound, the MCC in assay [3] is recorded as 125± 5 µmol EDTAE/g. In addition, the inhibition at 100 µg/mL in assay [4] turned out to be 45 ± 1%. Also, the “TRAP TE” value in assay [6] is on record as 2.98 ± 0.14 TE.

For the compound `O=C(O)c1cc(O)c(O)c(O)c1` [Gallic acid], the 50% inhibitory concentration (IC50) in assay [1] is 242 µM. Besides, the “O2•− Quenching IC50” value in assay [2] is 0.022 ± 0.01 µg/mL. For the same compound, in assay [3], the MCC is on record as 90 ± 3 µmol EDTAE/g. In assay [4], this compound had an inhibition at 100 µg/mL of 28 ± 2%.

The compound `O=C(O)Cc1ccccc1Nc1c(Cl)cccc1Cl` [Diclofenac] displayed an inhibition at 150 µg/mL in assay [7] of 64 ± 2%.

Usually IC50 stands for the concentration that inhibits the measured activity by half. For orientation: inhibition means the change of the read-out against control, counted positive when it falls. A lower inhibition goes with a response near the control.

Source of the values: PMC7910904, “Improving the Antioxidant Properties of Calophyllum inophyllum Seed Oil from French Polynesia: Development and Biological Applications of Resinous Ethanol-Soluble Extracts” (Antioxidants, 2021).
